Experimental findings from PMC5803267, “A small molecule inhibitor of Rheb selectively targets mTORC1 signaling” (Nature Communications, 2018) are described below.

SMILES strings stand for the structures.

Test [1] has as its system T389pS6K1 (mTORC1) in PC3 cells. The test can be described thus: Chronic treatment of PC3 cells, T389pS6K1 Western blot. The format is cell-based, human. The method, then: (§1) MCF-7 cells were serum-starved for 16 h and treated with compound for 90 min before cell lysis and Western blot analysis. For insulin-stimulated cells, 100 nM insulin was added 30 min before cell lysis. For EGF-stimulated cells, 100 ng mL^−1 EGF was added 10 min before cell lysis. c Rap1 activity was detected in lysates loaded in vitro with either GDP or GTPγS and treated with NR1 at the indicated concentrations. This was followed by a subsequent pulldown of GST-RalGDS-RBD. Bound Rap1 was detected by Western blot. d Evaluation of NR1 in a LAM patient-derived cell line (TRI102) under replete and serum-starved conditions. For replete conditions, TRI102 cells were treated for 90 min with compound in DMEM + 10% FBS. For serum-starved conditions, TRI102 cells were serum-starved 16 h and then treated for 90 min with compound prior to cell lysis and Western blot analysis. e HEK293 cells co-transfected with the indicated mTOR constructs and HA-GST-S6K1 were starved of amino acids or treated with NR1. To assess mTORC1 activity, an HA IP was performed and Western blots probed for ^T389pS6K1. f Chronic treatment of PC3 cells with NR1 to evaluate the inhibition of mTORC1 (using ^T389pS6K1) versus mTORC2 (using ^S473pAKT). PC3 cells were treated with compound under replete conditions for 24 h prior to cell lysis and Western blot analysis.
(§2) Accordingly, a hallmark of a selective mTORC1 inhibitor such as NR1 would be the lack of mTORC2 inhibition irrespective of the duration of treatment. PC3 cells are sensitive to mTORC2 inhibition with long-term rapamycin treatment. Indeed, upon treatment with rapamycin for 24 h, both ^T389pS6K1 and ^S473pAKT were lowered, indicating inhibitory effects on both mTORC1 and mTORC2, respectively.
(§3) For Western-based signaling assays, cells were treated for either 90 min or 2–24 h as indicated before lysis, normalization, and Western analysis. Cells were lysed in Triton lysis buffer: 1% Triton X-100, 50 mM HEPES pH 7.4, 100 mM NaCl, 2 mM EDTA, 10 mM β-glycerophosphate, 10 mM Na-pyrophosphate, protease inhibitor.
Background: Immunoblotting shows a protein as a band on a membrane.

In test [2] the test system is S473pAKT (mTORC2) in PC3 cells. As to the kind of experiment: Chronic treatment of PC3 cells, S473pAKT Western blot. Format: cell-based, human. On the procedure: as §1, §2, §3
Where [3] appears, read: PC3, replete, 24 h, NR1 30 µM, rapamycin 100 nM.
[4] abbreviates: PC3, time points 2 h through 24 h.

Consider `CN(C)C(=O)c1ccc(Cn2c(C(=O)O)cc3c(Br)cc(Sc4ccc(Cl)c(Cl)c4)cc32)cc1` [NR1, 4-bromo-6-(3,4-dichlorophenylthio)-1-(4-(dimethylcarbamoyl)benzyl)-1H-indole-2-carboxylic acid], for which the “T389pS6K1 after 24 h treatment” value in test [1] (setting [3]) is given as “potent inhibition”. In test [1] (setting [4]), the “pS6K1 over time course” value is recorded as “inhibits pS6K1”. Also, in test [2] (setting [3]), the “S473pAKT after 24 h treatment” value is reported as “no inhibition”. Moreover, the “pAkt over time course” value in test [2] (setting [4]) is given as “activates pAkt”.
